Test results reported in patent US9795570B2, “Modulation of macrophage phenotype by emodin” (University of South Carolina, priority 2016, dated 2017).

Experiments:
[1] = system: EO771 tumors; assay: EO771 breast tumor model in C57BL/6 mice; assay type: in vivo
Description: C57BL/6 and BALB/c mice (8-12 weeks, female) were purchased from Jackson Labs (Bar Harbor, Me.). They were housed at the University of South Carolina Animal Research Facility, and all procedures were approved by the Institutional Animal Care and Use Committee. EO771 or 4T1 cells (2×10^5) in 20 μL of PBS were injected into the 4th pair of mammary glands on C57BL/6 mice or BALB/C, respectively, on Day 0. Starting on Day 1, emodin (40 mg/kg) or vehicle (2% DMSO) was injected intraperitoneally in 1 ml PBS once daily. The tumor size was measured using a caliper every 2-4 days, and the tumor volume was calculated using a formula: V (mm^3)=L (major axis)×W^2 (minor axis)/2. Mice were sacrificed at various time points.
At sacrifice, tumors were embedded in OCT. They were then cut into 8 μm thick frozen sections and placed on slides. For immunohistochemistry staining, the sections were fixed with 4% paraformaldehyde for 10 min, and then blocked with 0.01 M glycine containing 0.1% Triton x-100. Next, the sections were blocked with 5% BSA. They were then incubated in primary antibody overnight at 4° C.: anti-F4/80 (1:50, Biolegend), anti-pSTAT6 (1:50, Cell Signaling), or anti-C/EBPβ (1:50, Santa Cruz). The sections were washed with PBS and then incubated with secondary antibodies for 1 h at room temperature. The sections were then stained with DAPI (1 μg/mL) and coverslipped with DABCO. Slides were imaged using a Zeiss LSM 510 Confocal microscope (Zeiss, Peabody, Mass.). For quantitative analysis, the number of positive cells was manually counted in six random fields of view per section. CD31 staining was performed according to standard methodology. Slides were imaged on a Nikon ECLIPSE E600 microscope (Nikon, Melville, N.Y.) at 200× magnification (10 fields per section). The integrated optical density (IOD) of CD31 was quantified using Image-Pro Plus software.
Macrophages or T cells were isolated from 4T1 tumors from mice sacrificed at 6 weeks post implantation or from EO771 tumors 5 weeks post implantation, using EasySep™ Mouse PE Positive Selection Kit (Stem Cell Technologies, Vancouver, BC). For cell isolation, 1×10^7-1×10^8 cells were incubated with 20 μL PE conjugated anti-F4/80 (Biolegend) for macrophages or 20 μL PE conjugated anti-CD3 for T cells and 50 μL microbeads. The T cells and macrophages were lysed in Qiazol and used for RT-PCR analysis. For ChIP assays, 5-10×10^6 macrophages were fixed in 1% formaldehyde.

[2] = system: EO771 cells; assay: Cell viability, LDH assay; assay type: cell-based, mouse; conditions: emodin 0-100 μM, 24-48 h
Description: (§1) Tumor cells (2×10^4 EO771 or 4T1 cells) were seeded into 96 well culture plates in DMEM with 10% FBS. The cells were incubated overnight at 37° C. The medium was then removed, and the cells were washed with phosphate-buffered saline (PBS). DMEM containing varying concentrations of emodin (0-100 μM) was then added to the cells in quadruplicate. Vehicle control contained an equal volume of DMSO. Plates of cells were then incubated for 24-48 h. After an indicated period, the viability of the cells was determined using a Lactate Dehydrogenase (LDH) Cytotoxicity Detection Kit (Clontech Mountain View, Calif.) according to the manufacturer's instructions. Briefly, the supernatant was removed from each well on the plate and placed in a new well on the same plate. An equal volume of cell lysis buffer (2% triton in DMEM) was then added to each well containing the cancer cells, and the cells were incubated at room temperature for 15 min. The reaction mixture was then added to each well (cell lysate plus supernatant) and incubated for 5 min before the stop solution was added. The absorbance was measured at 490 nm on a Spectra Max M5 Microplate Reader (Molecular Devices, Sunnyvale, Calif.). The percent viability was then calculated as the ratio of LDH in the cell lysate to the total amount of LDH in the lysate plus the supernatant. The viability of each group was compared to the control.

[3] = system: 4T1 cells; assay: Cell viability, LDH assay; assay type: cell-based, mouse; conditions: emodin 0-100 μM, 24-48 h
Description: as §1

[4] = system: Breast tumor cells from MMTV-PyMT mice; assay: Gene expression in ex vivo breast tumor cells (qPCR); assay type: cell-based, mouse
[5] = system: mouse peritoneal macrophages; assay: qPCR of macrophage activation genes; assay type: cell-based
Description: Three milliliters of 4% Thioglycolate solution was injected intraperitoneally into 8-12 week old C57BL/6 mice. Three days later, macrophages were collected by lavaging the peritoneal cavity with PBS. The cells were then resuspended in DMEM containing 10% FBS. After 2 h, non-adherent cells were washed away with PBS and the macrophages were cultured overnight in serum free DMEM. The macrophages were then treated with DMEM containing IL4 (10 ng/ml, BioAbChem Inc. Ladson, S.C.) or LPS (100 ng/ml, Sigma-Aldrich) and IFNγ (20 ng/ml, BioAbChem Inc) with or without emodin. Emodin was purchased from Nanjing Langze Medicine and Technology Co. Ltd (Nanjing, China) and dissolved in DMSO at a concentration of 10 mg/ml as a stock solution.
For qPCR, macrophages were lysed with Qiazol and RNA was extracted using Zymo research Direct-zol RNA isolation kit. cDNA was then made from 1 microgram of RNA using iScript cDNA Synthesis Kit (Bio-Rad Life Science). Run conditions were 95° C. for 10 s, 58° C. for 15 s, 70° C. for 15 s. Samples were run in duplicate on a Bio-rad CFX Real Time thermocycler.

[6] = 40 mg/kg IP once daily from Day 1

Cc1cc(O)c2c(c1)C(=O)c1cc(O)cc(O)c1C2=O [emodin]
primary tumor growth [1, 6]: significant inhibition
tumor weight at the endpoint [1, 6]: significant inhibition
M1 marker (iNOS) expression in TAMs ([1]; F4/80+ cells from tumors, qPCR): significantly higher
M2 marker (Arg1 and CD206) expression in TAMs ([1]; F4/80+ cells from tumors, qPCR): significantly lower
reduction of the number of tumor infiltrating macrophages (F4/80) ([1]; experimental endpoint, 40 mg/kg IP): 70%
CD31 staining in tumors, relative to control ([1]; microvessel density, 5 weeks post injection): ~50%
expression of inflammatory cytokines IL1β and TNFα in TAMs ([1]; qPCR, without statistical significance): higher expression levels
concentration from which a slight effect on cell viability starts [2]: ≥ 25 µM
concentration from which a slight effect on cell viability starts [3]: ≥ 25 µM
expression of CCL2, CSF1, CD90, N-cadherin, vimentin, FoxC2 and KLF4 [4]: significantly suppressed
expression of polarization markers iNOS, Arg1 and YM1 in naïve macrophages ([5]; emodin 25 or 50 μM, 24 h): no effects
expression of M1 genes TNFα, CXCL2 and CXCL10, and M2 gene Mrc1 ([5]; qPCR, LPS/IFNγ vs IL4 settings): inversely regulated
expression of M2 genes Arg1 and Chi3I3 ([5]; qPCR, under IL4 stimulation): inhibited
expression of receptors TLR4 and CSFr1 ([5]; qPCR, under LPS/IFNγ or IL4 stimulation, respectively): inhibited the expression
expression of IL1β, iNOS, IL6, MMP2 and 9 ([5]; qPCR, under LPS/IFNγ stimulation): inhibited the expression
expression of IRF5, SOCS1 and CCL2 ([5]; qPCR, under both IL4 and LPS stimulation): inhibited the expression
